“Also recorded” adds a separate entry of the source.
Experiments:
[1] = system: IL-1α; assay: Western blot analysis of secreted protein (IL-1α); assay type: cell-based, rat; settings: LPS, FIG. 1b
[2] = system: Female B6C3F1 mice; assay: Endotoxemia: hypothermia and survival after LPS; assay type: in vivo
Description: Female B6C3F1 mice weighing approximately 24 g were dosed with pentamidine (15 mg/kg.; i.v.) at both 24 hours and 1 hour prior to LPS administration (50 mg/kg; i.p.). Temperature response indices (TRI) were determined for the period between time zero and +12 hours in groups of 5 mice. […] Animals used for body temperature measurements were treated identically and on the same day as those animals for which survival was measured, although the survival of these animals is not included in the Table below. Survival data shown in Table 3 is following 24 hours of observation.

[3] = system: IL-1α; assay: Western blot analysis of cell associated IL-1α; assay type: cell-based, rat; settings: 10 μM pentamidine, LPS, 24 h, FIG. 3
Description: To determine the effect of pentamidine on cellular stores of IL-1, intracellular levels of IL-1 were quantitated by incubating cells with and without 10 μM pentamidine and LPS for 24 hours. At the end of this incubation period, the cells were washed, lysed and the total cellular protein was collected for Western blot analysis. […] This is in agreement with the generally accepted existence of a precursor form of IL-1 with a molecular weight in the range of 31-33 kD (J. Giri et al., J. Immunol. 134, 343 (1985)).
Cells (4×10^6 cells) were oultured with pentamidine (10μM) or dexamethasone (1μM) in media with 10% fetal calf serum (FCS) in the presence or absence of LPS (1 μg/ml) for 24 hours. The cells were washed twice in HBSS and then scraped in homogenizing buffer (HBSS containing 0.1 mM EGTA, 1 mM pmsf, 10 μg/ml leupeptin, 1 KIU/ml aprotinin, pH 7.4). The cell suspension was left on ice for 10 minutes at which time the swollen cells were disrupted by sonication. The nuclei and undisrupted cells were pelleted by centrifugation at 800 rpm for 10 minutes and were discarded. The supernatant was centrifugated at 39,000 rpm for 1 hour at 4° C. After centrifugation, the supernatants containing cytosolic components of the cell was carefully removed and was used as the cytosol fraction. […] Molecular weight references were determined by running one lane with pre-stained molecular weight standards.

[4] = system: IL-6; assay: IL-6 secretion by human macrophages; assay type: cell-based; settings: Macrophage, 10^-5 M, read-out: Suppression of IL-6 secretion
Description: It has also been observed that pentamidine (10^-5 M) blocks the secretion of tumor necrosis factor in rat macrophages (42 units/ml - pentamidine vs. 82 units/ml - control), as well as tumor necrosis factor and IL-6 in human macrophages, where at a concentration of 10^-5 M pentamidine, tumor necrosis factor and IL-6 secretion are suppressed >50%. These additional cytokines are also very influential mediators in inflammatory diseases.

[5] = system: membrane IL-1; assay: Effect on membrane IL-1 (mIL-1 bioassay); assay type: cell-based, rat; settings: LPS 5 ng/ml, 24 h, FIG. 4
Description: Membrane IL-1 was assayed as previously described (E. A. Kurt-Jones et al, Proc. Natl. Acad. Sci. USA, 82, 1204 (1985)). 10^5 cells were cultured in media and 10% FCS with or without pentamidine at varying concentrations and LPS at 5 ng/ml for 24 hours and then fixed to the bottom of the 96 well plates with paraformaldehyde. The IL-1 bioassay was then performed as described in Example 1.

[6] = system: oxazolone induced hypersensitivity; assay: Ear swelling response to oxazolone (delayed-type hypersensitivity); assay type: in vivo, mice; settings: pentamidine isethionate (heading), epicutaneous at time of oxazolone challenge, FIG. 5
Description: All groups were sensitized with 25 μl of 2.0% oxazolone on day 0 on the shaved dorsal surface of the back. On day 5, each group was treated with 10 μl of pentamidine on each side of the right ear immediately prior to challenge with 10 μl of 0.5% oxazolone on each side of the right ear. The left ear was treated at same time with the oxazolone vehicle (4:1 acetone:olive oil) and in the same manner as the challenged ear. Ear thickness was determined before, 24 and 48 hours after challenge. The concentration of pentamidine for each group was as follows:
Group 1--80 μg/ear pentamidine
Group 2--40 μg/ear pentamidine
Group 3--20 μg/ear pentamidine
Group 4--10 μg/ear pentamidine
Group 5--5 μg/ear pentamidine
Group 6--no treatment (oxazolone positive control)

With `N=C(N)c1ccc(OCCCCCOc2ccc(C(=N)N)cc2)cc1` [Pentamidine, 1,5-bis(4-amidinophenoxy)pentane] the “Secreted IL-1 by Western blot” value [1] was “nearly complete block in the release of the intracellular IL-1; also recorded: lack of a lipopolysaccharide inducible IL-1 band”, the “Temperature response index (TRI)” value ([2]; 15 mg/kg i.v. 24 h and 1 h prior to LPS 50 mg/kg i.p. (LPS alone -13.3), P < 0.01) was -8.3 Δ°C and the Survival ([2]; 15 mg/kg i.v. + LPS, 24 hours of observation (LPS alone 0/10), P < 0.01) was 10/10. For the same compound, the “Mean rectal temperature at 12 hours (Tr12hr)” value ([2]; 15 mg/kg i.v. + LPS, ± SE (LPS alone 25.3 ± 0.5), P < 0.01) was 29.0 ± 2.2 °C, the “Mean rectal temperature at time zero (Tr0)” value ([2]; 15 mg/kg i.v. + LPS, ± SE (LPS alone 38.6 ± 0.4)) was 37.3 ± 0.4 °C and the “Temperature response index (TRI)” value ([2]; 15 mg/kg i.v. at 24 h and 1 h, no LPS (vehicle -1.3)) was -2.4 Δ°C. For the same compound, the Survival ([2]; 15 mg/kg i.v., no LPS, 24 hours of observation (vehicle 10/10)) was 9/9, the “Mean rectal temperature at 12 hours (Tr12hr)” value ([2]; 15 mg/kg i.v., no LPS, ± SE (vehicle 36.9 ± 1.4)) was 35.0 ± 2.9 °C and the “Mean rectal temperature at time zero (Tr0)” value ([2]; 15 mg/kg i.v., no LPS, ± SE (vehicle 38.2 ± 0.1)) was 37.4 ± 0.6 °C. The “Cell associated IL-1α (Western blot)” value [3] was “allows proper translation of the protein; also recorded: antiserum to murine IL-1α bound to a protein that migrated to approximately 31 kD”, the inhibition at 10 µM [4] was over 50% and the “Amount of bioactive membrane IL-1 (mIL-1)” value [5] was “increased in a dose related manner”. The “Hypersensitivity response as measured by ear swelling” value [6] was “statistically significant (p<0.001) reduction in the hypersensitivity response”.

Source: patent US5162361A, “Method of treating diseases associated with elevated levels of interleukin 1” (priority 1990, dated 1992)
